According to PubChem BioAssay AID330 (DTP/NCI, 2004):
“And” between values parts separate entries of the source, which are not always exact repeats. Identical values can stand only once. Toxic doses and inconclusive results are not listed.

System: P388 leukemia ip, CD2F1 mice, survival T/C
Test: NCI In Vivo Anticancer Drug Screen. Data for tumor model P388 Leukemia (intraperitoneal) in CD2F1 (CDF1) mice
Conditions: endpoint: median survival time, higher = longer survival
Method in brief: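 Mice carrying the transplanted tumor received test compound or vehicle. Survival was recorded in each group, and the value is the treated-group measurement divided by that of the vehicle-treated control group.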

[1] = dose: 12.5 mg/kg/injection, schedule: Q01DX009 (ip), vehicle: Klucel (hydroxypropylcellulose) (HPC)
[2] = dose: 25.0 mg/kg/injection, schedule: Q01DX009 (ip), vehicle: Klucel (hydroxypropylcellulose) (HPC)
[3] = dose: 50.0 mg/kg/injection, schedule: Q01DX009 (ip), vehicle: Klucel (hydroxypropylcellulose) (HPC)
[4] = dose: 100.0 mg/kg/injection, schedule: Q01DX009 (ip), vehicle: Klucel (hydroxypropylcellulose) (HPC)
[5] = dose: 200.0 mg/kg/injection, schedule: Q01DX009 (ip), vehicle: Klucel (hydroxypropylcellulose) (HPC)
[6] = dose: 60.0 mg/kg/injection, schedule: Q01DX005 (ip), vehicle: saline with Tween-80
[7] = dose: 120.0 mg/kg/injection, schedule: Q01DX005 (ip), vehicle: saline with Tween-80
[8] = dose: 240.0 mg/kg/injection, schedule: Q01DX005 (ip), vehicle: saline with Tween-80
[9] = dose: 50.0 mg/kg/injection, schedule: Q01DX005 (ip), vehicle: saline
[10] = dose: 60.0 mg/kg/injection, schedule: Q01DX005 (ip), vehicle: saline
[11] = dose: 50.0 mg/kg/injection, schedule: Q01DX005 (ip), vehicle: saline with Tween-80
[12] = dose: 50.0 mg/kg/injection, schedule: Q01DX009 (ip), vehicle: saline with Tween-80
[13] = dose: 100.0 mg/kg/injection, schedule: Q01DX009 (ip), vehicle: saline with Tween-80
[14] = dose: 200.0 mg/kg/injection, schedule: Q01DX009 (ip), vehicle: saline with Tween-80

`CC12CCC3c4ccc(O)cc4CCC3C1C/C(=C\C(=O)O)C2=O` (configuration not stated) was tested, and the T/C (dose: 3.13 mg/kg/injection, schedule: Q01DX009 (ip), vehicle: Klucel (hydroxypropylcellulose) (HPC)) was 104 % of control, the T/C (dose: 6.25 mg/kg/injection, schedule: Q01DX009 (ip), vehicle: Klucel (hydroxypropylcellulose) (HPC)) was 111 % of control and the T/C [1] was 108 % of control. For the same molecule, the T/C [2] was 111 % of control.
In the case of `Cc1cc(C)n2nc(CC#N)c(C#N)c2n1`, the T/C [1] is reported as 109 % of control, the T/C [2] is reported as 100 % of control and 107 % of control and 97 % of control and the T/C [3] is reported as 100 % of control and 105 % of control and 109 % of control. The T/C [4] was 123 % of control and 94 % of control and 97 % of control.
For `CCCCCCCSc1nc2ccc(N=Cc3ccccc3O)cc2s1`, the T/C [3] was 93 % of control, the T/C [4] was 103 % of control and the T/C [5] was 103 % of control.
`[N-]=[N+]=Nc1cc(-c2ccccc2)nc2cc3c(cc12)OCO3` was tested, and the T/C [6] was 97 % of control, the T/C [7] was 105 % of control and the T/C [8] was 108 % of control.
In the case of `CC(=O)/C(=C/c1ccc(OC2OC(CO)C(O)C(O)C2O)cc1)C(=O)CCN(C)C` (configuration not stated), the T/C [9] is reported as 107 % of control, the T/C (dose: 100.0 mg/kg/injection, schedule: Q01DX005 (ip), vehicle: saline) is reported as 93 % of control and the T/C (dose: 200.0 mg/kg/injection, schedule: Q01DX005 (ip), vehicle: saline) is reported as 100 % of control.
`COc1cc2c(cc1OC)C1=[N+](CCC1)CC2` was tested, and the T/C (dose: 15.0 mg/kg/injection, schedule: Q01DX005 (ip), vehicle: saline) was 101 % of control, the T/C (dose: 30.0 mg/kg/injection, schedule: Q01DX005 (ip), vehicle: saline) was 99 % of control and the T/C [10] was 99 % of control.
With `c1cncc(-c2c3ccccc3cc3ccc4ccccc4c23)c1` the T/C [11] was 104 % of control, the T/C (dose: 100.0 mg/kg/injection, schedule: Q01DX005 (ip), vehicle: saline with Tween-80) was 103 % of control and the T/C (dose: 200.0 mg/kg/injection, schedule: Q01DX005 (ip), vehicle: saline with Tween-80) was 100 % of control.
For `O=C(Nc1ccc(C2=NCCN2)cc1)c1cc(Cl)cc(C(=O)Nc2ccc(C3=NCCN3)cc2)c1`, the T/C (dose: 140.0 mg/kg/injection, schedule: Q01DX010 (ip), vehicle: saline) was 95 % of control, the T/C (dose: 210.0 mg/kg/injection, schedule: Q01DX010 (ip), vehicle: saline) was 90 % of control and the T/C (dose: 315.0 mg/kg/injection, schedule: Q01DX010 (ip), vehicle: saline) was 100 % of control. For the same molecule, the T/C (dose: 473.0 mg/kg/injection, schedule: Q01DX010 (ip), vehicle: saline) was 100 % of control.
For `CCn1c(=O)cc2n(C)c3ccccc3n2c1=O`, the T/C [6] was 98 % of control, the T/C [7] was 94 % of control and the T/C [8] was 92 % of control.
With `CCN1C=C/C(=C/c2cc3scc(-c4ccccc4)[n+]3c3ccccc23)c2ccccc21` the T/C (dose: 0.32 mg/kg/injection, schedule: Q04DX003 (ip), vehicle: saline sonified) was 109 % of control.
With `C#CCCCOCOCCOC` the T/C [10] was 101 % of control and the T/C (dose: 120.0 mg/kg/injection, schedule: Q01DX005 (ip), vehicle: saline) was 101 % of control.
With `N#CNC(=Nc1ccccc1)[N](C#N)[Sn]([c]1ccccc1)([c]1ccccc1)[c]1ccccc1` the T/C (dose: 1.56 mg/kg/injection, schedule: Q01DX005 (ip), vehicle: Klucel (hydroxypropylcellulose) (HPC)) was 100 % of control, the T/C (dose: 3.12 mg/kg/injection, schedule: Q01DX005 (ip), vehicle: Klucel (hydroxypropylcellulose) (HPC)) was 102 % of control and the T/C (dose: 6.25 mg/kg/injection, schedule: Q01DX005 (ip), vehicle: Klucel (hydroxypropylcellulose) (HPC)) was 103 % of control and 97 % of control.
`C=CCC12CC(O)C(O)CC1(O)OC(c1cc(OC)c(OC)c(OC)c1)C2C` (configuration not stated) was tested, and the T/C (dose: 1.25 mg/kg/injection, schedule: Q01DX005 (ip), vehicle: acid diluted with saline) was 115 % of control, the T/C (dose: 2.5 mg/kg/injection, schedule: Q01DX005 (ip), vehicle: acid diluted with saline) was 102 % of control and the T/C (dose: 5.0 mg/kg/injection, schedule: Q01DX005 (ip), vehicle: acid diluted with saline) was 100 % of control. The T/C (dose: 10.0 mg/kg/injection, schedule: Q01DX005 (ip), vehicle: acid diluted with saline) was 93 % of control.
With `Ic1ccc(N=Cc2ccc(C=Nc3ccc(I)cc3)cc2)cc1` the T/C [1] was 99 % of control, the T/C [2] was 95 % of control and the T/C [3] was 100 % of control. The T/C [4] was 86 % of control and the T/C [5] was 89 % of control.
For `O=C(Nc1cc(NC(=O)n2nnc3ccccc32)c(Br)cc1Br)n1nnc2ccccc21`, the T/C [3] was 91 % of control, the T/C [4] was 89 % of control and the T/C [5] was 97 % of control.
`CCCCCNc1ccc(NCCCCC)c2c1C(=O)c1ccccc1C2=O` was tested, and the T/C (dose: 50.0 mg/kg/injection, schedule: Q01DX009 (ip), vehicle: saline) was 98 % of control, the T/C (dose: 100.0 mg/kg/injection, schedule: Q01DX009 (ip), vehicle: saline) was 99 % of control and the T/C (dose: 200.0 mg/kg/injection, schedule: Q01DX009 (ip), vehicle: saline) was 89 % of control.
In the case of `Nc1ccc2cc(S(=O)(=O)O)c(N=Nc3ccc(-c4ccc(N=Nc5ccc(O)c(C(=O)O)c5)cc4)cc3)c(O)c2c1`, the T/C (dose: 50.0 mg/kg/injection, schedule: Q01DX005 (ip), vehicle: Klucel (hydroxypropylcellulose) (HPC)) is reported as 92 % of control, the T/C (dose: 100.0 mg/kg/injection, schedule: Q01DX005 (ip), vehicle: Klucel (hydroxypropylcellulose) (HPC)) is reported as 97 % of control and the T/C (dose: 200.0 mg/kg/injection, schedule: Q01DX005 (ip), vehicle: Klucel (hydroxypropylcellulose) (HPC)) is reported as 95 % of control.
With `COC(=O)C(Cc1ccc(N(CCCl)CCCl)cc1)N=NNc1nc[nH]c1C(N)=O` (configuration not stated) the T/C (dose: 12.5 mg/kg/injection, schedule: Q04DX003 (ip), vehicle: saline with Tween-80) was 163 % of control, the T/C (dose: 25.0 mg/kg/injection, schedule: Q04DX003 (ip), vehicle: saline with Tween-80) was 168 % of control and the T/C (dose: 33.0 mg/kg/injection, schedule: Q04DX003 (ip), vehicle: saline with Tween-80) was 172 % of control. The T/C (dose: 50.0 mg/kg/injection, schedule: Q04DX003 (ip), vehicle: saline with Tween-80) was 181 % of control and 213 % of control and the T/C (dose: 75.0 mg/kg/injection, schedule: Q04DX003 (ip), vehicle: saline with Tween-80) was 231 % of control.
`O=C1CSC2(CCN(CCCN3c4ccccc4Sc4ccc(Cl)cc43)CC2)N1` was tested, and the T/C [12] was 98 % of control and the T/C [13] was 116 % of control.
For `C/C=C(\C(=O)O)S(=O)(=O)O.[Pb]`, the T/C (dose: 25.0 mg/kg/injection, schedule: Q01DX009 (ip), vehicle: saline with Tween-80) was 100 % of control and the T/C [12] was 90 % of control.
`COc1ccccc1N1C(=O)CSC1=S` was tested, and the T/C [13] was 86 % of control, the T/C (dose: 100.0 mg/kg/injection, schedule: Q04DX003 (ip), vehicle: saline with Tween-80) was 90 % of control and the T/C [14] was 90 % of control. The T/C (dose: 200.0 mg/kg/injection, schedule: Q04DX003 (ip), vehicle: saline with Tween-80) was 90 % of control and the T/C (dose: 400.0 mg/kg/injection, schedule: Q04DX003 (ip), vehicle: saline with Tween-80) was 100 % of control.
For `CC(C)CC(Nc1nncs1)Nc1nncs1`, the T/C [6] was 96 % of control, the T/C [7] was 90 % of control and the T/C [8] was 100 % of control.
For `Cc1nc(C(Cl)(Cl)Cl)[nH]c(=O)c1SCCO`, the T/C (dose: 50.0 mg/kg/injection, schedule: Q01DX005 (ip), vehicle: distilled water + alcohol) was 101 % of control and 108 % of control, the T/C (dose: 100.0 mg/kg/injection, schedule: Q01DX005 (ip), vehicle: distilled water + alcohol) was 105 % of control and 120 % of control and the T/C (dose: 200.0 mg/kg/injection, schedule: Q01DX005 (ip), vehicle: distilled water + alcohol) was 114 % of control.
For `CCCCCCCCCCCCCCOc1ccc(C(C)=O)o1`, the T/C [12] was 95 % of control and the T/C [14] was 100 % of control.
`C[Se](=C(C(=O)c1ccccc1)C(=O)c1ccccc1)c1ccccc1` (configuration not stated) was tested, and the T/C (dose: 100.0 mg/kg/injection, schedule: Q04DX002 (ip), vehicle: saline) was 99 % of control, the T/C (dose: 200.0 mg/kg/injection, schedule: Q04DX002 (ip), vehicle: saline) was 100 % of control and the T/C (dose: 400.0 mg/kg/injection, schedule: Q04DX002 (ip), vehicle: saline) was 98 % of control.
`O=C(c1ccccc1)C(CN1CCCC1)CN1CCCC1` was tested, and the T/C (dose: 12.5 mg/kg/injection, schedule: Q01DX005 (ip), vehicle: saline) was 100 % of control, the T/C (dose: 25.0 mg/kg/injection, schedule: Q01DX005 (ip), vehicle: saline) was 97 % of control and the T/C [9] was 100 % of control and 102 % of control.
For `O=C(NNC1CCN(Cc2ccccc2)CC1)c1ccccc1`, the T/C (dose: 10.0 mg/kg/injection, schedule: Q04DX003 (ip), vehicle: saline with Tween-80) was 100 % of control and the T/C (dose: 20.0 mg/kg/injection, schedule: Q04DX003 (ip), vehicle: saline with Tween-80) was 95 % of control.
For `C#CC1(O)CC(c2ccccc2)N(C)C(c2ccccc2)C1` (configuration not stated), the T/C (dose: 12.5 mg/kg/injection, schedule: Q01DX005 (ip), vehicle: saline with Tween-80) was 93 % of control, the T/C (dose: 25.0 mg/kg/injection, schedule: Q01DX005 (ip), vehicle: saline with Tween-80) was 98 % of control and the T/C [11] was 98 % of control and 87 % of control.
